Patent US7947729B2, “Adduct of fluorescent dye and tumor avid tetrapyrrole” (Health Research, Inc., priority 2004, dated 2011)

Key:
RIF tumors [1] = assay: Tumor uptake by in vivo reflectance spectroscopy; design: species or system C3H mice
Method: The tumor uptake of conjugate 5 was determined by in vivo reflectance spectroscopy. For these experiments, C3H mice bearing RIF tumors were injected with 5.0 μmole/kg of conjugate 5 and the in vivo absorption spectra were taken at various time intervals.

RIF tumors [2] = assay: Photosensitizing efficiency (photodynamic therapy of implanted tumors); type: in vivo, C3H mice; conditions: light 135 J/cm^2 at 665 nm, 24 hours post injection, FIG. 7
Method: To measure photosensitizing efficiency, RIF tumors were implanted subcutaneously into axilla of 5-7 week old female C3H mice. When tumors grew to about […] in size, conjugate 5 was injected at variable doses (0.5, 1.0, 1.5, and 2.5 μmole/kg) The tumors were treated with light at an energy of 135 J/cm^2 at a wavelength of 665 nm (in vivo absorption band for HPPH) at 24 hours post injection and the mice were observed daily. From the results summarized in FIG. 7, it can be seen that conjugate 5 produced 100% tumor cure at a dose of 2.5 μmole/kg (the tumor imaging dose).

RIF tumor cells = assay: Site of intracellular localization compared with a mitochondrial probe; type: cell-based; conditions: 24 hours incubation; compared with MITO-TRACKER green (400 nM); FIG. 8
From the text: In general, porphyrin based compounds have shown diverse patterns of localization at least somewhat dependent upon structure, lipophilicity and charge.

| Compound | uptake in tumor relative to skin (RIF tumors [1]; 5.0 μmole/kg injected, 24 hours post injection, FIG. 3) | tumor cure (RIF tumors [2]; 2.5 μmole/kg) [%] | photosensitizing efficacy at lower doses (RIF tumors [2]; doses below 2.5 μmole/kg (0.5, 1.0, 1.5)) | site of localization in cells (RIF tumor cells) | uptake in skin relative to tumor, dye alone (RIF tumors [1]; 5.0 μmole/kg, dye alone, C3H mouse bearing tumor) | tumor uptake compared with HPPH-ICG conjugate 5 (RIF tumors [1]; 5.0 μmole/kg, dye alone, FIG. 5) | time post injection at which cleared from both tumor and skin (RIF tumors [1]; 5.0 μmole/kg, dye alone, found to clear rapidly) [h] |
| --- | --- | --- | --- | --- | --- | --- | --- |
| CCCCCCOC(C)c1c(C)c2cc3nc(c4c5[nH]c(cc6nc(cc1[nH]2)C(C)=C6CC)c(C)c5C(=O)C4)C(CCC(=O)Nc1ccc(SC2=C(C=CC4=[N+](CCCCS(=O)(=O)[O-])c5ccc6ccccc6c5C4(C)C)CCCC2=CC=C2N(CCCCS(=O)(=O)[O-])c4ccc5ccccc5c4C2(C)C)cc1)C3C.[Na+] (stereo not shown) [conjugate 5] | more significant uptake in tumor than skin | 100 | limited photosensitizing efficacy | localizes in mitochondria |  |  |  |
| CC1(C)C(=CC=C2CCCC(C=CC3=[N+](CCCCS(=O)(=O)[O-])c4ccc5ccccc5c4C3(C)C)=C2Cl)N(CCCCS(=O)(=O)[O-])c2ccc3ccccc3c21.[Na+] [indocyanine green analog (1), indocyanine green 820 nm analog CAS172616-80-7] |  |  |  |  | higher uptake in skin than in tumor | significantly lower tumor uptake | 4 to 5 |
